Results taken from patent publication US7125842B2, “Anti-fungal compounds and methods of use” (CanBas Co. Ltd., priority 2003, dated 2006).

What was measured:
[1] = biological target: T1, ATR (Homo sapiens, UniProt Q13535); test: In vitro phosphorylation inhibition, ATR (ELISA); format: biochemical; settings: CBP501 0.5, 5, 50 uM, 30° C., compared to cyclin-dependent kinases, PKA and PKC (FIG. 1)
T1 construct: ATM and ATR: Full length recombinant human, 293T cells; host or cells: 293T cells
Protocol: (§1) Source of kinases, measurement method, substrate, first antibody, second antibody, reaction buffer, reaction volume, ATP concentration, and reaction time are as follows. ATM and ATR: Full length recombinant human, 293T cells, enzyme linked immunosorbent assay (ELISA), GST-p53 (aal -99), anti-p53-phosphorylated Serl 5, Horse radish peroxidase (HRP)-labeled anti-rabbit IgG, 1×Mg/Mn kinase buffer (20 mM Hepes-KOH (pH7.5), 1 mM DTT, 80 ug/ml BSA, 10 mM MgCl2, 10 mM MnCl2), 50 ul, 100 uM, and 60 min. Chk1, Chk2 and c-Tak1: Full length recombinant human from SF-9 cells for Chk1, Full length recombinant human from E. Coli for Chk2 and Full length recombinant human from SF-9 cells for c-Tak1, respectively, ELISA, GST-Cdc25C (aa167–267), anti-Cdc25C-phosphorylated Ser216, HRP-labelled anti-mouse IgG, 1×Mg kinase buffer (20 mM Hepes-KOH (pH7.5), 1 mM DTT, 80 ug/ml BSA, 10 mM MgCl2), 50 ul, 50 uM, and 60 min. PLK-1: Human full length GST fusion, E. Coli, ELISA, GST fusion protein Y, Anti-phosphorylated Ser/Thr monoclonal, HRP-labelled anti-mousr IgG, 1×Mg kinase buffer, 30 ul, 50 uM, and 60 min. […]
(§2) All incubations were at 30° C. […] The phosphorylated substrate was detected with either ELISA or RIA as described above. […] The quantity of phosphorylated substrate for each kinase reaction without CBP501 was nominated as 100%.

[2] = biological target: T2, CHK1 (Homo sapiens, UniProt O14757); test: In vitro phosphorylation inhibition, CHK1 (ELISA); format: biochemical; settings: CBP501 0.5, 5, 50 uM, 30° C., compared to cyclin-dependent kinases, PKA and PKC (FIG. 1)
T2 construct: Full length recombinant human from SF-9 cells for Chk1; host or cells: SF-9 cells
T2 sequence (O14757 1-476): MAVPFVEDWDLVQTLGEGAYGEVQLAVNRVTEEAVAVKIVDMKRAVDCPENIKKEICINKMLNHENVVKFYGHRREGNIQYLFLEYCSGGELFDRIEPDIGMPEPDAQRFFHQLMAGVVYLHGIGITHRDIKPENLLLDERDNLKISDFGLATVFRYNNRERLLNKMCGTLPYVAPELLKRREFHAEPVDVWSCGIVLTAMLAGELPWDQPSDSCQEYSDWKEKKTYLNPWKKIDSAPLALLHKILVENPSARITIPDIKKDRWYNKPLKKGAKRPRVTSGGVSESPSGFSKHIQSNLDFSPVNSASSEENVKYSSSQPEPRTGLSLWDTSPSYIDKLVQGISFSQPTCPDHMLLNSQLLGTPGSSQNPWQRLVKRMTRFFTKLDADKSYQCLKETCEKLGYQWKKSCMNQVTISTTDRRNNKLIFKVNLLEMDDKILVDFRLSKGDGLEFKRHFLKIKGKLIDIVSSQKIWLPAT
Protocol: as §1, §2

[3] = biological target: T3, Wee1 (Homo sapiens, UniProt P30291); test: In vitro phosphorylation inhibition, Wee1 (ELISA); format: biochemical; settings: CBP501 0.5, 5, 50 uM, 30° C., compared to cyclin-dependent kinases, PKA and PKC (FIG. 1)
T3 construct: Weel: Human fulllength recombinant with GST fusion, E. Coli; GST; host or cells: E. coli
T3 sequence (P30291 whole entry, the tested form may be a part): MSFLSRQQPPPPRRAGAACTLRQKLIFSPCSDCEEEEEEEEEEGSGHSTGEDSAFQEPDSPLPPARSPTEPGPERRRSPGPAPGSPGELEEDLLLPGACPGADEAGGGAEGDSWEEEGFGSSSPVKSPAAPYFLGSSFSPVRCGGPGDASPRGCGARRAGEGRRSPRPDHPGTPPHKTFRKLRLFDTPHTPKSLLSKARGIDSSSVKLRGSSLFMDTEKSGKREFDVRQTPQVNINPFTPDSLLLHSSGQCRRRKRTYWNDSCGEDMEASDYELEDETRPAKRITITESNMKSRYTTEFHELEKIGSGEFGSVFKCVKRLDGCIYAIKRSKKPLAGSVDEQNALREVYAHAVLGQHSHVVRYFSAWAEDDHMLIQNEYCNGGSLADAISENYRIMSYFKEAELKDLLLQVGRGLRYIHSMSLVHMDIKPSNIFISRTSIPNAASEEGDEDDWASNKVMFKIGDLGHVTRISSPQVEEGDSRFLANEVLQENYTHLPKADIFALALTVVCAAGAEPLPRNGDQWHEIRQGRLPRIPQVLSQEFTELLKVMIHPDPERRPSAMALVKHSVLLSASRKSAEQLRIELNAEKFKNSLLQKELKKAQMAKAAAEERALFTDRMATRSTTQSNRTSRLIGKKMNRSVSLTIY
Protocol: as §1, §2

[4] = biological target: T4, ATM (Homo sapiens, UniProt Q13315); test: In vitro phosphorylation inhibition, ATM (ELISA); format: biochemical; settings: CBP501 0.5, 5, 50 uM, 30° C., compared to cyclin-dependent kinases, PKA and PKC (FIG. 1)
T4 construct: ATM and ATR: Full length recombinant human, 293T cells; host or cells: 293T cells
T4 sequence (Q13315 whole entry): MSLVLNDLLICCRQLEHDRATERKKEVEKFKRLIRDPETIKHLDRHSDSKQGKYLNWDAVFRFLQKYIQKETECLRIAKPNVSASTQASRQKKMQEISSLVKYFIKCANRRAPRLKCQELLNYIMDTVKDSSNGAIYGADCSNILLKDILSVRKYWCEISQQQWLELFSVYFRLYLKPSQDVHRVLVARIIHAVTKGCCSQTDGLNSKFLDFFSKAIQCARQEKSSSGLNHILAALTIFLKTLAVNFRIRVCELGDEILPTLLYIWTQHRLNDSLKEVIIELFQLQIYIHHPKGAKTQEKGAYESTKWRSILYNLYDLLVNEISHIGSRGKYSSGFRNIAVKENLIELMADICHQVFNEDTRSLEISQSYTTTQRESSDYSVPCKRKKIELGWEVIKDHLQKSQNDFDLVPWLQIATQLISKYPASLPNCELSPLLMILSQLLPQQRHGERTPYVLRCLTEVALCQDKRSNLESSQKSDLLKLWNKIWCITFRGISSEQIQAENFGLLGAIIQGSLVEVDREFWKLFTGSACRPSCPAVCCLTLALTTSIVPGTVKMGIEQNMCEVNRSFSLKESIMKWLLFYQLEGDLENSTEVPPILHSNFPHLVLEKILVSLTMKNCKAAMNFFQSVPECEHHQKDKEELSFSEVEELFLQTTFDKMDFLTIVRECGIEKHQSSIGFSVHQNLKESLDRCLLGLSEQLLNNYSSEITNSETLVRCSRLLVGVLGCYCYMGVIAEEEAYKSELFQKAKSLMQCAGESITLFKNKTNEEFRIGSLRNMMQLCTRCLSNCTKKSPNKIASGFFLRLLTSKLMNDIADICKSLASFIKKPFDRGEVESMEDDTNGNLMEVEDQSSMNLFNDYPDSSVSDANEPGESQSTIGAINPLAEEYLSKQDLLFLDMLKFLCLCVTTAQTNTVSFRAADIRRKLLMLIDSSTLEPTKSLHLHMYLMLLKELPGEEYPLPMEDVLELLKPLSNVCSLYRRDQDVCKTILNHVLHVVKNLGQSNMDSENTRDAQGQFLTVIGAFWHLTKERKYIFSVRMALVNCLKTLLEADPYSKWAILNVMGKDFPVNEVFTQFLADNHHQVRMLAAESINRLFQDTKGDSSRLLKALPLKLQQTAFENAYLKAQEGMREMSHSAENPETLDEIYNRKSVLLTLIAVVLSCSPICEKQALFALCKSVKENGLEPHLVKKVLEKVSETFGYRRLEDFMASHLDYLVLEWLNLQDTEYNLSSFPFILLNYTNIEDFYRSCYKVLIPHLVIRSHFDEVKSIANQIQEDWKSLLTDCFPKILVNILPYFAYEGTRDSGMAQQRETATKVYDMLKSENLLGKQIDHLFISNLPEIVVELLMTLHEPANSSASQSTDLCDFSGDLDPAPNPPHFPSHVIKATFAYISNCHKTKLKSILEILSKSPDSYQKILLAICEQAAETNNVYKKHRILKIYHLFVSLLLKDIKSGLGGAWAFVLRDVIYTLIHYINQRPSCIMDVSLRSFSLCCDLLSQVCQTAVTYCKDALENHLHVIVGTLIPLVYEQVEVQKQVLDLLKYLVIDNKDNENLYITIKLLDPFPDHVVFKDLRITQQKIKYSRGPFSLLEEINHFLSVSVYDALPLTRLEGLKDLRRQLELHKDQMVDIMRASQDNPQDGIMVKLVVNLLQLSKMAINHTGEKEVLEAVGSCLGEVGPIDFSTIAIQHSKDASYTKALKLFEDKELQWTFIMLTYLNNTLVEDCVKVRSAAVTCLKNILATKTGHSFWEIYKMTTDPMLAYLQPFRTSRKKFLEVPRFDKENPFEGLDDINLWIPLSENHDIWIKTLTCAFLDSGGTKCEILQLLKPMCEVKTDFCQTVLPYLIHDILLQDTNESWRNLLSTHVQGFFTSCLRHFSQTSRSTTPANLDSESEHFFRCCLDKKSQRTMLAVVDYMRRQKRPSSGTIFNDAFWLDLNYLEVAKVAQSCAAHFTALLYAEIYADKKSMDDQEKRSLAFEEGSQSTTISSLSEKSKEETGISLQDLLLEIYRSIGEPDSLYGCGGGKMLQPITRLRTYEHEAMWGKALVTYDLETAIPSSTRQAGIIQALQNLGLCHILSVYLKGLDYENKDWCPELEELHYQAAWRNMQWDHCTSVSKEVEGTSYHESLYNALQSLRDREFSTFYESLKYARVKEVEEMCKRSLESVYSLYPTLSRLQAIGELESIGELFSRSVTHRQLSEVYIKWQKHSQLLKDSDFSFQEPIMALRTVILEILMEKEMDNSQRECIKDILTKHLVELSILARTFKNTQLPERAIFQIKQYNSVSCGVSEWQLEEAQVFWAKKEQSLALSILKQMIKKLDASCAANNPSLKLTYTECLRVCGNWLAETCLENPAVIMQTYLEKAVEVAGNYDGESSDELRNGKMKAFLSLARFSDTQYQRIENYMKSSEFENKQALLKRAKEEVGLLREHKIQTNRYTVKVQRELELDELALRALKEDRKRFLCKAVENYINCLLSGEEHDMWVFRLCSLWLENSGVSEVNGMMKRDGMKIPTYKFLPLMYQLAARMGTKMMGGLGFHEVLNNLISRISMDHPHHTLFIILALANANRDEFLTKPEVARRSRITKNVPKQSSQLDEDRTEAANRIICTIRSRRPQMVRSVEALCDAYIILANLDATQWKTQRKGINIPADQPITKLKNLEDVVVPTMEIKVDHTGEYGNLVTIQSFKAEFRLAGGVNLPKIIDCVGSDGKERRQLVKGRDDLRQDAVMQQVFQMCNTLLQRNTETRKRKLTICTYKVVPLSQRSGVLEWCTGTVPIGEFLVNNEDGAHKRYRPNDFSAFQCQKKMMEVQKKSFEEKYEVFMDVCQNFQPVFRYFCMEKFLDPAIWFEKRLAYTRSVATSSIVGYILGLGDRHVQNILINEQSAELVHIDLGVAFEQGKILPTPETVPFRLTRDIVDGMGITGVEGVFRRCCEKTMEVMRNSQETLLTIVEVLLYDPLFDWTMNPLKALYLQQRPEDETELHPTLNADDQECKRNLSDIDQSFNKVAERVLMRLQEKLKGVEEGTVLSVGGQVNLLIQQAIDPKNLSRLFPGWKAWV
Protocol: as §1, §2

[5] = tested on: Candida glabrata (ATCC 36583); test: Minimal growth inhibitory concentration by turbidity, Candida glabrata; format: cell-based; settings: Candida glabrata ATCC 36583, fluid Sabouraud medium, 28 degree, turbidity two days after inoculation
Protocol: (§3) Candida albicans was obtained from ATCC (ATCC 10231) and cultured in fluid Sabouraud medium at 37 degree. The turbidity was measured one day after the innoculation and treatment with CBP501 at 0.03, 0.1, 0.3, 1, 3, 10, 30, 100 μg/ml. Candida glabrata was obtained from ATCC (ATCC 36583) and cultured in fluid Sabouraud medium at 28 degree. The turbidity was measured two days after the innoculation and treatment with CBP501 at 0.03, 0.1, 0.3, 1, 3, 10, 30, 100 μg/ml. Cryptococcus neoformans was obtained from ATCC (ATCC 24067) and cultured in fluid Sabouraud medium at 37 degree. The turbidity was measured two days after the innoculation and treatment with CBP501 at 0.03, 0.1, 0.3, 1, 3, 10, 30, 100 μg/ml. Trichophyton mentagroohytes was obtained from ATCC (ATCC 9533) and cultured in potato dextrose broth at 28 degree. The turbidity was measured three days after the innoculation and treatment with CBP501 at 0.03, 0.1, 0.3, 1, 3, 10, 30, 100 μg/ml. Minimal growth inhibitory concentrations were determined as the concentration of minimal CBP501 where the turbidity was not increased (Table 2).

[6] = biological target: T5, PLK1 (Homo sapiens, UniProt P53350); test: In vitro phosphorylation inhibition, PLK1 (ELISA); format: biochemical; settings: CBP501 0.5, 5, 50 uM, 30° C., compared to cyclin-dependent kinases, PKA and PKC (FIG. 1)
T5 construct: PLK-1: Human full length GST fusion, E. Coli; GST; host or cells: E. coli
T5 sequence (P53350 whole entry, the tested form may be a part): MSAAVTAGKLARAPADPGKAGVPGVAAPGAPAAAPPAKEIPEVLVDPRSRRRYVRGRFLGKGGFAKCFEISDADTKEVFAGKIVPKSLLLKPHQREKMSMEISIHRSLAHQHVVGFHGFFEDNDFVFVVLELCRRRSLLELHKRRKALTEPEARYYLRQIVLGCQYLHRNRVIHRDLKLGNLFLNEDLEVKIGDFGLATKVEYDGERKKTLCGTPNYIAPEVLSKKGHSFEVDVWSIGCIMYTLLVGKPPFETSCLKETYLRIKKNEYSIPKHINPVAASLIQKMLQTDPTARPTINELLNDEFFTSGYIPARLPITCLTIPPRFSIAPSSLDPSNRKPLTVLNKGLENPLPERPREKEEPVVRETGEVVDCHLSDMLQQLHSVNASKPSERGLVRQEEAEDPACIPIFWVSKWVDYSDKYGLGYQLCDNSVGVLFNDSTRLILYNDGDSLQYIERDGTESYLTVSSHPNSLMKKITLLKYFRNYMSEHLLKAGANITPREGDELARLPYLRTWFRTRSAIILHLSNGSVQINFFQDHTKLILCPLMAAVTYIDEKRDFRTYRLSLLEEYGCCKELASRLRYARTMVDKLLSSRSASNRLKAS
Protocol: as §1, §2

[7] = tested on: Trichophyton mentagroohytes (ATCC 9533); test: Minimal growth inhibitory concentration by turbidity, Trichophyton mentagroohytes; format: cell-based; settings: Trichophyton mentagroohytes ATCC 9533, potato dextrose broth, 28 degree, turbidity three days after inoculation
Protocol: as §3

[8] = biological target: T6, CHK2 (Homo sapiens, UniProt O96017); test: In vitro phosphorylation inhibition, CHK2 (ELISA); format: biochemical; settings: CBP501 0.5, 5, 50 uM, 30° C., compared to cyclin-dependent kinases, PKA and PKC (FIG. 1)
T6 construct: Full length recombinant human from E. Coli for Chk2; host or cells: E. coli
T6 sequence (O96017 whole entry): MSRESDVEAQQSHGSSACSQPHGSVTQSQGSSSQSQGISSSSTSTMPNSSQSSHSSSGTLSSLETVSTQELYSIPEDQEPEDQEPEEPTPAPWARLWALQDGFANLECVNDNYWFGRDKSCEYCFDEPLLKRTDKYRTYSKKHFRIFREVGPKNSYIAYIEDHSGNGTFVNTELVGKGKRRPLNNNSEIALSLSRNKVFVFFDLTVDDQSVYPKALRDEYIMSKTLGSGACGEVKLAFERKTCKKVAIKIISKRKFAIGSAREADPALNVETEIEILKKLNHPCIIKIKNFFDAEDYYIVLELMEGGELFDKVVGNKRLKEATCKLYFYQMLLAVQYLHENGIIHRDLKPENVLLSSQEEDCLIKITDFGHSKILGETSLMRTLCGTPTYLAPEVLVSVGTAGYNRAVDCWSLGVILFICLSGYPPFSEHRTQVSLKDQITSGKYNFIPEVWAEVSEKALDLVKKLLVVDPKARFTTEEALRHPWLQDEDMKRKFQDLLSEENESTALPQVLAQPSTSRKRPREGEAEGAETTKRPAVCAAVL
Protocol: as §1, §2

[9] = tested on: Cryptococcus neoformans (ATCC 24067); test: Minimal growth inhibitory concentration by turbidity, Cryptococcus neoformans; format: cell-based; settings: Cryptococcus neoformans ATCC 24067, fluid Sabouraud medium, 37 degree, turbidity two days after inoculation
Protocol: as §3

[10] = tested on: Candida albicans (ATCC 10231); test: Minimal growth inhibitory concentration by turbidity, Candida albicans; format: cell-based; settings: Candida albicans ATCC 10231, fluid Sabouraud medium, 37 degree, turbidity one day after inoculation
Protocol: as §3

[11] = tested on: yeast AH109; test: Growth inhibition of yeast AH109 on YAPD plate; format: cell-based, Saccaromices Cerevisie; settings: 1 hr incubation at 30° in liquid YAPD, then 3 days on YAPD agarose plate (FIG. 2)
Protocol: Cell culture Saccaromices Cerevisie AH109 was purchased from CLONTECH (Palo Alto, Calif.). YAPD plates were prepared using YPD agar purchased from CLONTECH and adenine purchased from Sigma-Aldrich Co. The cells were cultured at 30 degree.
Logarithmically growing yeast AH109 in liquid medium (YAPD) was diluted to 1 to 10 with warm liquid YAPD medium with or without CBP501 and/or amphotericin B at the indicated doses. After 1 hr incubation at 30° whole solution was poured onto the YAPD agarose plate. The plate was then incubated 3 days and the samples were phtographed (FIG. 2).

(d-Bpa)(d-Ser)(d-Trp)(d-Ser) (d-Phe2,3,4,5,6-F)(d-Cha)(d-Arg)(d-Arg)(d-Arg)(d-Gln)(d-Arg)(d-Arg) [CBP501]
inhibition of kinase activity (phosphorylation of substrate) [1]: strongly inhibited | inhibition of kinase activity (phosphorylation of substrate) [2]: strongly inhibited | inhibition of kinase activity (phosphorylation of substrate) [3]: strongly inhibited | inhibition of kinase activity (phosphorylation of substrate) [4]: strongly inhibited | MIC (minimul inhibitory concentration) [5]: 30 µg/mL | inhibition of kinase activity (phosphorylation of substrate) [6]: strongly inhibited | MIC (minimul inhibitory concentration) [7]: 100 µg/mL | inhibition of kinase activity (phosphorylation of substrate) [8]: strongly inhibited | MIC (minimul inhibitory concentration) [9]: 1 µg/mL | MIC (minimul inhibitory concentration) [10]: 100 µg/mL | growth of yeast AH109 on YAPD plate [11]: growth inhibition
